From patent US20250129430A1, “HIGH ATP-AFFINITY PROTEIN AS THERAPEUTIC TARGET FOR INTRACTABLE CANCER MOLECULAR SUBTYPES AND INHIBITOR THEREOF” (VeraVerse Co., Ltd., priority 2021, published 2025)
Structures can show the parent of a compound that is named as a salt.

Columns and labels:
Experiment in all cases: Cell viability drug screen, 12-point dose-response AUC
Type in all cases: cell-based, human
FU97 = system: FU97; design: Average Area Under the Viability Curve (AUC), AUC norm value: scale not given here; details: FU97 cells; 72 hours
Experimental: (§1) Cells cultured for cell-based drug assay were inoculated into a 96-well white optical plate (Corning) at 5×10^3 cells per well. After 24 hours after inoculation, a 2.5 MJT (primary screen) or a half-log 12-serial diluent (secondary screen) of the pharmacological compound contained in DMSO is added to the cells with a robot using a BioMek FXp liquid processor (Beckman) to add to the cells at 50 mM. The final drug concentration in the 5 ns range and the DMSO specification control (0.5%) were calculated. The cells were then further incubated at 37° C. in a 5% CO2 incubator for 72 hours prior to measuring cell viability using the extra-GLO assay kit (Promega). The luminescent properties were measured after 15 min incubation at room temperature using a plate stacker equipped with a plate stacker. The normalized viability for the DMSO-based control was measured to generate a cell line-specific 12-point dose-response curve for each pharmacological compound, and then the area under the curve (AUC) was calculated using a trapezoidal method.

MKN1 = MKN1 cells; 72 hours
Experimental: (§2) An FDA-approved small-molecule pharmacological compound (#L1300) and an anticancer compound for research (#L2000) were purchased from Selecckchem and a 10 mM solution was prepared in DMSO. A total of 1,345 compounds were tested the cell viability of the seven EMT gastric cancer cell lines.
as §1, with “method. […] The results of the repeated experiments were averaged to generate AUC values for each cell line for each compound.” for “method.”

SNU719 = SNU719 cells; 72 hours
Experimental: as §2
as §1, with “method. […] The results of the repeated experiments were averaged to generate AUC values for each cell line for each compound.” for “method.”

SNU16 = SNU16 cells; 72 hours
Experimental: as §2
as §1, with “method. […] The results of the repeated experiments were averaged to generate AUC values for each cell line for each compound.” for “method.”

SNU1 = SNU1 cells; 72 hours
Experimental: as §2
as §1, with “method. […] The results of the repeated experiments were averaged to generate AUC values for each cell line for each compound.” for “method.”

OCUM1 = OCUM1 cells; 72 hours
Experimental: as §2
as §1, with “method. […] The results of the repeated experiments were averaged to generate AUC values for each cell line for each compound.” for “method.”

SNU1750 = SNU1750 cells (SEM subtype); 72 hours
Experimental: as §2
as §1, with “method. […] The results of the repeated experiments were averaged to generate AUC values for each cell line for each compound.” for “method.”

NCC19 = NCC19 cells; 72 hours
Experimental: as §2
as §1, with “method. […] The results of the repeated experiments were averaged to generate AUC values for each cell line for each compound.” for “method.”

MKN74 = MKN74 cells; 72 hours
Experimental: as §2
as §1, with “method. […] The results of the repeated experiments were averaged to generate AUC values for each cell line for each compound.” for “method.”

SK4 = SK4 cells (SEM subtype); 72 hours
Experimental: as §2
as §1, with “method. […] The results of the repeated experiments were averaged to generate AUC values for each cell line for each compound.” for “method.”

SNU620 = SNU620 cells; 72 hours
Experimental: as §2
as §1, with “method. […] The results of the repeated experiments were averaged to generate AUC values for each cell line for each compound.” for “method.”

MKN28 = MKN28 cells; 72 hours
Experimental: as §2
as §1, with “method. […] The results of the repeated experiments were averaged to generate AUC values for each cell line for each compound.” for “method.”

MKN45 = MKN45 cells (non-SEM subtype); 72 hours
Experimental: as §2
as §1, with “method. […] The results of the repeated experiments were averaged to generate AUC values for each cell line for each compound.” for “method.”

SNU601 = SNU601 cells; 72 hours
Experimental: as §2
as §1, with “method. […] The results of the repeated experiments were averaged to generate AUC values for each cell line for each compound.” for “method.”

YCC3 = YCC3 cells; 72 hours
Experimental: as §2
as §1, with “method. […] The results of the repeated experiments were averaged to generate AUC values for each cell line for each compound.” for “method.”

SNU1967 = SNU1967 cells; 72 hours
Experimental: as §2
as §1, with “method. […] The results of the repeated experiments were averaged to generate AUC values for each cell line for each compound.” for “method.”

SNU638 = SNU638 cells; 72 hours
Experimental: as §2
as §1, with “method. […] The results of the repeated experiments were averaged to generate AUC values for each cell line for each compound.” for “method.”

AGS = AGS cells (non-SEM subtype); 72 hours
Experimental: as §2
as §1, with “method. […] The results of the repeated experiments were averaged to generate AUC values for each cell line for each compound.” for “method.”

SNU484 = SNU484 cells (SEM subtype); 72 hours
Experimental: as §2
as §1, with “method. […] The results of the repeated experiments were averaged to generate AUC values for each cell line for each compound.” for “method.”

YCC11 = YCC11 cells (SEM subtype); 72 hours
Experimental: as §2
as §1, with “method. […] The results of the repeated experiments were averaged to generate AUC values for each cell line for each compound.” for “method.”

Hs746T = Hs746T cells (SEM subtype); 72 hours
Experimental: as §2
as §1, with “method. […] The results of the repeated experiments were averaged to generate AUC values for each cell line for each compound.” for “method.”

NCI_N87 = NCI_N87 cells; 72 hours
Experimental: as §2
as §1, with “method. […] The results of the repeated experiments were averaged to generate AUC values for each cell line for each compound.” for “method.”

SNU668 = SNU668 cells (SEM subtype); 72 hours
Experimental: as §2
as §1, with “method. […] The results of the repeated experiments were averaged to generate AUC values for each cell line for each compound.” for “method.”

KATO3 = KATO3 cells; 72 hours
Experimental: as §2
as §1, with “method. […] The results of the repeated experiments were averaged to generate AUC values for each cell line for each compound.” for “method.”

NCC20 = NCC20 cells; 72 hours
Experimental: as §2
as §1, with “method. […] The results of the repeated experiments were averaged to generate AUC values for each cell line for each compound.” for “method.”

NCC59 = NCC59 cells; 72 hours
Experimental: as §2
as §1, with “method. […] The results of the repeated experiments were averaged to generate AUC values for each cell line for each compound.” for “method.”

SNU216 = SNU216 cells (non-SEM subtype); 72 hours
Experimental: as §2
as §1, with “method. […] The results of the repeated experiments were averaged to generate AUC values for each cell line for each compound.” for “method.”

NCC24 = NCC24 cells; 72 hours
Experimental: as §2
as §1, with “method. […] The results of the repeated experiments were averaged to generate AUC values for each cell line for each compound.” for “method.”

YCC2 = YCC2 cells; 72 hours
Experimental: as §2
as §1, with “method. […] The results of the repeated experiments were averaged to generate AUC values for each cell line for each compound.” for “method.”

`CCCCC(CC)CNC(=N)NC(=N)NCCCCCCNC(=N)NC(=N)NCC(CC)CCCC` (stereo not drawn) [Alexidine HCl] was tested, and the “Average Area Under the Viability Curve (AUC), AUC norm value” (from here on “Average Area Under the Viability Curve”) (FU97) was −0.9535, the “Average Area Under the Viability Curve” value (MKN1) was 0.8687 and the “Average Area Under the Viability Curve” value (SNU719) was 1.2. The “Average Area Under the Viability Curve” value (SNU16) was −1.849, the “Average Area Under the Viability Curve” value (SNU1) was 0.7061 and the “Average Area Under the Viability Curve” value (OCUM1) was −0.04134. For the same molecule, the “Average Area Under the Viability Curve” value (SNU1750) was −0.6331, the “Average Area Under the Viability Curve” value (NCC19) was 1.132 and the “Average Area Under the Viability Curve” value (MKN74) was −0.3433. For the same molecule, the “Average Area Under the Viability Curve” value (SK4) was −0.9023, the “Average Area Under the Viability Curve” value (SNU620) was 0.0423 and the “Average Area Under the Viability Curve” value (MKN28) was 0. For the same molecule, the “Average Area Under the Viability Curve” value (MKN45) was 0.04553, the “Average Area Under the Viability Curve” value (SNU601) was 1.898 and the “Average Area Under the Viability Curve” value (YCC3) was 0.8273. The “Average Area Under the Viability Curve” value (SNU1967) was 0.1828, the “Average Area Under the Viability Curve” value (SNU638) was −0.612 and the “Average Area Under the Viability Curve” value (AGS) was −0.444. The “Average Area Under the Viability Curve” value (SNU484) was −1.212, the “Average Area Under the Viability Curve” value (YCC11) was −1.347 and the “Average Area Under the Viability Curve” value (Hs746T) was −0.2597. The “Average Area Under the Viability Curve” value (NCI_N87) was 2.531, the “Average Area Under the Viability Curve” value (SNU668) was −0.1375 and the “Average Area Under the Viability Curve” value (KATO3) was 0.541. For the same molecule, the “Average Area Under the Viability Curve” value (NCC20) was 0.6963, the “Average Area Under the Viability Curve” value (NCC59) was 1.334 and the “Average Area Under the Viability Curve” value (SNU216) was 0.03777. For the same molecule, the “Average Area Under the Viability Curve” value (NCC24) was −0.4745 and the “Average Area Under the Viability Curve” value (YCC2) was −0.00823.
With `Cc1ccc(S(=O)(=O)/C=C/C#N)cc1` [BAY 11-7082 (BAY 11-7821), BAY 11-7082] the “Average Area Under the Viability Curve” value (FU97) was 0.0931, the “Average Area Under the Viability Curve” value (MKN1) was −0.3248 and the “Average Area Under the Viability Curve” value (SNU719) was 1.377. For the same molecule, the “Average Area Under the Viability Curve” value (SNU16) was −0.6715, the “Average Area Under the Viability Curve” value (SNU1) was 1.33 and the “Average Area Under the Viability Curve” value (OCUM1) was 0.7491. For the same molecule, the “Average Area Under the Viability Curve” value (SNU1750) was −1.012, the “Average Area Under the Viability Curve” value (NCC19) was −0.07527 and the “Average Area Under the Viability Curve” value (MKN74) was 0.03633. For the same molecule, the “Average Area Under the Viability Curve” value (SK4) was −0.7659, the “Average Area Under the Viability Curve” value (SNU620) was −0.1923 and the “Average Area Under the Viability Curve” value (MKN28) was −0.1987. The “Average Area Under the Viability Curve” value (MKN45) was 0.194, the “Average Area Under the Viability Curve” value (SNU601) was 0.7218 and the “Average Area Under the Viability Curve” value (YCC3) was 0.7116. The “Average Area Under the Viability Curve” value (SNU1967) was −0.8028, the “Average Area Under the Viability Curve” value (SNU638) was −1.497 and the “Average Area Under the Viability Curve” value (AGS) was −0.5085. The “Average Area Under the Viability Curve” value (SNU484) was −0.4504, the “Average Area Under the Viability Curve” value (YCC11) was −1.538 and the “Average Area Under the Viability Curve” value (Hs746T) was −0.5796. The “Average Area Under the Viability Curve” value (NCI_N87) was 0.5073, the “Average Area Under the Viability Curve” value (SNU668) was 0.8081 and the “Average Area Under the Viability Curve” value (KATO3) was 0.7229. For the same molecule, the “Average Area Under the Viability Curve” value (NCC20) was −0.8287, the “Average Area Under the Viability Curve” value (NCC59) was 1.031 and the “Average Area Under the Viability Curve” value (SNU216) was 0.3865. For the same molecule, the “Average Area Under the Viability Curve” value (NCC24) was 0.8357 and the “Average Area Under the Viability Curve” value (YCC2) was 0.
`CC[C@@H]1C(=O)N(C)c2cnc(Nc3ccc(C(=O)N[C@H]4CC[C@H](N5CCN(CC6CC6)CC5)CC4)cc3OC)nc2N1C(C)C` [BI6727 (Volasertib), Volasertib] was tested, and the “Average Area Under the Viability Curve” value (FU97) was 0.3078, the “Average Area Under the Viability Curve” value (MKN1) was −0.162 and the “Average Area Under the Viability Curve” value (SNU719) was 3.74. For the same molecule, the “Average Area Under the Viability Curve” value (SNU16) was 0, the “Average Area Under the Viability Curve” value (SNU1) was −0.487 and the “Average Area Under the Viability Curve” value (OCUM1) was 2.405. For the same molecule, the “Average Area Under the Viability Curve” value (SNU1750) was −0.5962, the “Average Area Under the Viability Curve” value (NCC19) was 3.256 and the “Average Area Under the Viability Curve” value (MKN74) was −0.01134. For the same molecule, the “Average Area Under the Viability Curve” value (SK4) was −0.9263, the “Average Area Under the Viability Curve” value (SNU620) was −0.4098 and the “Average Area Under the Viability Curve” value (MKN28) was −1.335. For the same molecule, the “Average Area Under the Viability Curve” value (MKN45) was 0.5875, the “Average Area Under the Viability Curve” value (SNU601) was 0.4757 and the “Average Area Under the Viability Curve” value (YCC3) was 3.488. The “Average Area Under the Viability Curve” value (SNU1967) was −0.1645, the “Average Area Under the Viability Curve” value (SNU638) was 0.3626 and the “Average Area Under the Viability Curve” value (AGS) was −1.0975. The “Average Area Under the Viability Curve” value (SNU484) was −0.03282, the “Average Area Under the Viability Curve” value (YCC11) was −0.7997 and the “Average Area Under the Viability Curve” value (Hs746T) was 2.378. The “Average Area Under the Viability Curve” value (NCI_N87) was −0.3929, the “Average Area Under the Viability Curve” value (SNU668) was 0.1516 and the “Average Area Under the Viability Curve” value (KATO3) was 3.3921. For the same molecule, the “Average Area Under the Viability Curve” value (NCC20) was 0.5594, the “Average Area Under the Viability Curve” value (NCC59) was 3.198 and the “Average Area Under the Viability Curve” value (SNU216) was 1.868. The “Average Area Under the Viability Curve” value (NCC24) was −0.9502 and the “Average Area Under the Viability Curve” value (YCC2) was −0.09826.
